In patent publication US20240059740A1, “CYCLIC PEPTIDES AND USES THEREOF” (PRE[…] INC., priority 2020, published 2024):
Residues, ends and D or L forms follow the SMILES beside them.

Target: T1, recombinant MMP-2 (Homo sapiens, UniProt P08253)
T1 construct: purchased ab139446
T1 sequence (P08253 110-660): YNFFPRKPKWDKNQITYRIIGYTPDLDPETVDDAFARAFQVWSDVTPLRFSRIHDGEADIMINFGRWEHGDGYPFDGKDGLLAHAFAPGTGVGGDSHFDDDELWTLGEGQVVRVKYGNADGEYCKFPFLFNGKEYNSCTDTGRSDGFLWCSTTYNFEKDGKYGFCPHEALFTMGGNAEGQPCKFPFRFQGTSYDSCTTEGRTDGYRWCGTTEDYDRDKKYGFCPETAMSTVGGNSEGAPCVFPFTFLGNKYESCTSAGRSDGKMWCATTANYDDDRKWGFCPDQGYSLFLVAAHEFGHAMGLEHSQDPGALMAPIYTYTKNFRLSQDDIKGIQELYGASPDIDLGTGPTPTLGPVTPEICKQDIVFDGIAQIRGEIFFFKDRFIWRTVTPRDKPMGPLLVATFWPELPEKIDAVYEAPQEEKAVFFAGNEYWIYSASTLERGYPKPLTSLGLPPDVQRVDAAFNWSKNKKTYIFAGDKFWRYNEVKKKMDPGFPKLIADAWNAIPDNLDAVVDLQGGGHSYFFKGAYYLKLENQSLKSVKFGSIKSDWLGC
Test: MMP-2 Inhibitor Screening Assay Kit (colorimetric)
Type: biochemical
Method: MMP-2 is an important target for inhibitor screening due to its involvement in cancer growth, angiogenesis, and metastasis. The MMP-2 screening assay was carried out with a commercially available MMP-2 Inhibitor Screening Assay Kit (Colorimetric, Catalog: ab139446) based on the manufacturers protocol. This assay is based on quantification of recombinant MMP-2 activity using a colorimetric assay (MMP-2 degrades a chromogenic substrate). The assay provides NNGH (N-isobutyl-N-(4-methoxyphenylsulfonyl) glycyl hydroxamic acid), a small molecule inhibitor, as a positive control (NNGH). […] Each determination was run in duplicate.
% Inhibition rate=(Vinhibitor/Vcontrol)×100
Briefly, MMP Substrate and MMP Inhibitor were warmed to room temperature to thaw DMSO. MMP Inhibitor (NNGH), MMP-2 substrate and MMP-2 enzyme were diluted with assay buffer to required concentration. 20 μL of MMP-2 enzyme and MMP-2 inhibitor (peptides, Chlorotoxin and NNGH) was added, then 50 μL of assay buffer was added and the reaction mixture incubated at 37° C. for 1 h. After incubation, 10 μL of MMP Substrate was added to start reaction. The reactions were continuously read at 412 nm in a microplate reader. Data was recorded at 1 min. time intervals for 10 to 20 min. The data as was plotted as optical density (OD) versus time for each sample. The reaction velocity (V) was obtained in OD/min: determine the slope of a line fit to the linear portion of the data plot using an appropriate routine. Then using the equation above the inhibitor % activity remaining was calculated. The control was without inhibitor.

Q: Which remaining activity at 1 µM (1 μM, 1 h preincubation at 37° C., lower value = higher inhibitory activity, read-out: % inhibition (Vinhibitor/Vcontrol ×100)) does the source give for `CC(C)C[C@@H]1NC(=O)[C@H](C)NC(=O)[C@@H](NC(=O)[C@@H]2CCCN2C(=O)[C@@H](N)CC(C)C)CSSC(C)(C)CNC(=O)CC[C@@H](C(=O)N[C@@H](CCCNC(=N)N)C(N)=O)NC(=O)[C@H](CC(=O)O)NC(=O)[C@H](CC(N)=O)NC1=O` [SEQ ID NO: 1, Leu-Pro-c(SSA*-Ala-Leu-Asn-Asp-Glu)-Arg-NH2] (HELM PEPTIDE1{L.P.C.A.L.N.D.E.R.[am]}|CHEM1{[CC(C)(CN[*:2])S[*:1]]}$PEPTIDE1,CHEM1,3:R3-1:R1|PEPTIDE1,CHEM1,8:R3-1:R2$$$V2.0; N-terminus assumed) here?
A: 81%

Q: What about the remaining activity at 10 µM (10 μM, lower value = higher inhibitory activity, read-out: % inhibition (Vinhibitor/Vcontrol ×100)) of the same compound?
A: 75.2%

Q: What about the remaining activity at 100 µM (100 μM, lower value = higher inhibitory activity, read-out: % inhibition (Vinhibitor/Vcontrol ×100)) of the same compound?
A: 66.9%

Q: What about the “inhibition of MMP-2 activity (in words)” value (1 to 100 μM) of the same compound?
A: dose dependent ability to inhibit MMP-2 activity
